Laboratory results: patent US20220087970A1, “PREVENTION OF ANESTHETIC-INDUCED NEUROCOGNITIVE DYSFUNCTION” (The Johns Hopkins University, priority 2019, published 2022)

Tests used:
[1] = test system: SAP102; assay: Western blot of hippocampal synaptic fractions: SAP102; assay type: in vivo; conditions: one day after PND7 mice exposed to isoflurane (1.5% ISO in O2, 4 h)
Description: (§1) One day after PND7 mice were exposed to isoflurane (1.5% ISO in O2, 4 h), we harvested hippocampal tissues for Western blotting to assess the expression of receptors and MAGUKs. […] (N=9). A *p<0.05 was considered significant. […] Data shown as % actin;

[2] = test system: NR1; assay: Western blot of hippocampal synaptic fractions: NR1; assay type: in vivo; conditions: one day after PND7 mice exposed to isoflurane (1.5% ISO in O2, 4 h)
Description: as §1

[3] = test system: primary neuron cultures; assay: Primary neuron cultures, long thin spines and filopodia at DIV7; assay type: cell-based; conditions: 4 hrs: isoflurane 1.5%, PDZ2WT peptide 1 μM or sevoflurane 2.1%
Description: Primary neuron cultures were exposed to control gas (25% O2, 5% CO2, bal N2), isoflurane (1.5% ISO in 25% O2, 5% CO2, bal N2), DETA NONOate NO donor 150 μM and sGC inhibitor ODQ 100 μM for 4 hrs. […] MAP2 dendrite marker, green. Drebrin A/E immature spine/filopodia marker, red. Scale bar is 5 μm. FIG. 20B, Density of long thin spines and filopodia at DIV7 among exposed groups analyzed using Imaris 93.1;
MAP2, green. Drebrin, red. Scale bar is 5 μm. FIG. 21B, show the density of long thin spines and filopodia among exposed groups;
Neuron cultures were exposed to control gas (25% O2, 5% CO2, balance N2) or sevoflurane (2.1% ISO in 25% O2, 5% CO2, balanced N2) for 4 hrs. […] Scale bar is 5 μm. FIG. 22B, Density of long thin spines and filopodia among exposed groups; and […]

[4] = set-up: species or system mice; conditions: mouse, in vivo
Description: PND7 control and experimental mice were placed in a clear plastic cone and body temperature maintained by a heating blanket set to 35° C. Heart rate (HR) and oxyhemoglobin saturation (SpO2) were continuously monitored using pulse-oximetry (PhysioSuite, Kent Scientific). Arterial blood was collected by terminal cardiac puncture of the left ventricle from sentinels and pH (pHa) determined using a blood gas machine (ABL800 FLEX Series Radiometer). […] Naïve control animals were left with the dams. Control ‘CON’ animals were exposed to oxygen only. Anesthesia was initiated with 2.4% isoflurane in oxygen for 2 min and tapered down to 1.5% within 15 min. Exposure to 1.5% isoflurane was continued for 3 hours and 45 min (total 4 hours ISO). At the end of the exposure animals were maintained in oxygen on the heating blanket for 10 min then returned to dams. […] Tao and Johns, 2008. Purification of fusion peptides was performed by Creative BioMart (Shirley, N.Y.) and verified by Coomassie blue staining and Western blot analysis and then stored in 10% glycerol/phosphate-buffered saline at −80° C. until use. The Tat-PSD-95 PDZ2WT and MUT plasmids used to generate proteins containing an amino-terminal, in-frame, 11-amino-acid, minimal transduction domain (residues 47-57 of human immunodeficiency virus Tat protein) termed Tat. […] Fang et al., 2003. The NO donor Molsidomine [(N-[ethoxycarbonyl]-3-[4-morpholinosydnomine] (Sigma, St. Louis, Mo.) was injected at 4 mg/kg into mice ip in 100 μL sterile saline as previously described. Control animals were injected ip with the vehicle (saline).

## FC(F)OC(Cl)C(F)(F)F (racemic) [ISO, (RS)-2-chloro-2-(difluoromethoxy)-1,1,1-trifluoroethane]
[1]
  amount of SAP102 in synaptic fractions: significant increase
[2]
  amount of NR1 in synaptic fractions: decrease
[3]
  long thin spines and filopodia at DIV7 after exposure: loss of long thin and filopodia spines
[4]
  arterial blood pH (pHa): 7.26±0.05
  heart rate (HR): 611±84
  oxyhemoglobin saturation (SpO2): 93±6
